Test results published in patent publication US12281149B2, “Modulators of G-protein coupled receptors” (priority 2021, dated 2025).
Where two headings read alike, the source gives them in different places. *1 amine or outer side, *2 acyl side, *3 side chain or, on linkers, in order; H or OH if unused. Where a SMILES comes first, the peptide text is derived from it. Side-chain parts run from the residue outwards. [ ]: non-standard residue; d: D form. The star is where a group is joined. Isobutyryl(2-(3-CN-5-F-Ph)) = CC(C)(C(=O)*)c1cc(F)cc(C#N)c1; NH(4-Cl-3-CF3-phenyl) = FC(F)(F)c1cc(N*)ccc1Cl; C20 diacid = O=C(O)CCCCCCCCCCCCCCCCCCC(=O)*; γGlu = O=C(O)[C@H](CCC(=O)[*:2])N[*:1]; X81 = CCC(CC)(C(=O)*)c1cc(F)cc(C#N)c1; X7 = CC(C)(C(=O)*)c1cccc(C#N)c1; AEEA = NCCOCCOCC(=O)O; Aib = CC(C)(N)C(=O)O; CO = O=C([*:1])[*:2]; GABA = NCCCC(=O)O; βAla = NCCC(=O)O

Key:
Assay type in all cases: cell-based
GIP receptor [1] = target: T1, GIP receptor (Homo sapiens, UniProt P48546); experiment: HitHunter cAMP assay, GIP receptor; details: for Emax: read-out: Emax GIP-1R
T1 sequence (P48546 22-466): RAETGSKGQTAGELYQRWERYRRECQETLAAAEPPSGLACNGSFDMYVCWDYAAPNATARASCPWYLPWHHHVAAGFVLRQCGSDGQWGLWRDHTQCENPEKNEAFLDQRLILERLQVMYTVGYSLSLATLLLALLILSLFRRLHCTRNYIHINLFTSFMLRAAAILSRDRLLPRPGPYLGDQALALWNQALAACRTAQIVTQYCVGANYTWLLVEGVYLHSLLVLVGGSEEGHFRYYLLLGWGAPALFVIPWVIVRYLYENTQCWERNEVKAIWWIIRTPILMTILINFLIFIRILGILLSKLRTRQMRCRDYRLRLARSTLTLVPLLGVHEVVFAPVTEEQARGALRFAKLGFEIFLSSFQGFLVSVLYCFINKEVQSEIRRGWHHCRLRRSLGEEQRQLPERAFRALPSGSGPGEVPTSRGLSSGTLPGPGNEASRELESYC
Experimental: (§1) CAMP accumulation was measured in Chinese hamster ovary (CHO) cells stably expressing the human GLP-1 receptor or GIP receptor using the HitHunter CAMP Assay for Small Molecules Kit (Eurofins). Briefly, cells were grown in Ham's F12 Nutrient Mix with 10% FBS and lifted with Cell dissociation buffer, Enzyme free, PBS based (ThermoFisher). Cells were pelleted and resuspended in Hank's buffered saline solution with 10 mM Hepes and 625 μM 3-isobutyl-1-methylxanthine. The antibody reagent was then added to cells at a 1:2 ratio and 5 μL of mixture was seeded in 384-well small volume white assay plates, at 10,000 cells/well. Cells were then treated with 50 nl compound in DMSO using an ECHO 550 acoustic dispenser (Labcyte) in a 20-point dose response format in triplicate for 30 min. Cells were the lysed and detection reagents added according to the manufacturer's protocol. After overnight incubation, luminescence was measured using a Perkin Elmer Envision plate reader. Raw data was normalized to the maximum signal from GLP-1 or GIP (high) and DMSO (low). Dose response curves were analyzed using GraphPad Prism 9.0.

GIP receptor [2] = target: T1, GIP receptor; experiment: PathHunter β-arrestin assay, GIP receptor; design: host or cells: PathHunter CHO-K1 GIPR β-Arrestin Cell Line
GLP-1 receptor [3] = target: T2, GLP-1 receptor (Homo sapiens, UniProt P43220); experiment: PathHunter β-arrestin assay, GLP-1 receptor; design: host or cells: PathHunter CHO-K1 GLP1R β-Arrestin Cell Line
T2 sequence (P43220 24-463): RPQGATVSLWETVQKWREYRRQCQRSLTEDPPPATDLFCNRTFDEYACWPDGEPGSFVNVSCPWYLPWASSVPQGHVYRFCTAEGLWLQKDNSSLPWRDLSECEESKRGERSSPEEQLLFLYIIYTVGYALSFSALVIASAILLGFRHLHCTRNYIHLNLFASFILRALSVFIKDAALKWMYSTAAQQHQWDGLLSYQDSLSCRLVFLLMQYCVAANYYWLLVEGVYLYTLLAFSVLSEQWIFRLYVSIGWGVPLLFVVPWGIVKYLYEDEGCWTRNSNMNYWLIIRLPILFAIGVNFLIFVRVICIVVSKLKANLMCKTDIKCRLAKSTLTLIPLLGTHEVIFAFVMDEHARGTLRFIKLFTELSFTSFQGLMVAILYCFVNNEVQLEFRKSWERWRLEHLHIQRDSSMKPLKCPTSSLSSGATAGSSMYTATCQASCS

GLP-1 receptor [4] = target: T2, GLP-1 receptor; experiment: HitHunter cAMP assay, GLP-1 receptor; details: for Emax: read-out: Emax GLP-1R
Experimental: as §1

[5] = CHO cells stably expressing GIP receptor, cAMP accumulation, 30 min, read-out: EC50 GIP-1R
[6] = CHO cells, cAMP, normalized to maximum signal from GIP (high) and DMSO (low)
[7] = β-arrestin-2 recruitment, PathHunter CHO-K1 GIPR β-Arrestin Cell Line, 90 min at 37° C., normalized to GIP, read-out: GIPR β Arrestin EC50
[8] = β-arrestin-2 recruitment, PathHunter CHO-K1 GLP1R β-Arrestin Cell Line, 90 min at 37° C., normalized to GLP-1, read-out: GLP-1R β Arrestin EC50
[9] = CHO cells stably expressing human GLP-1 receptor, cAMP accumulation, 30 min, read-out: EC50 GLP-1R
[10] = CHO cells, cAMP, normalized to maximum signal from GLP-1 (high) and DMSO (low)

CC[C@H](C)[C@H](NC(=O)[C@H](CC(C)C)NC(=O)[C@H](Cc1c[nH]c2ccccc12)NC(=O)[C@H](CCC(N)=O)NC(=O)[C@@H](NC(=O)[C@H](Cc1ccccc1)NC(=O)[C@H](C)NC(=O)[C@H](CCCCNC(=O)COCCOCCNC(=O)COCCOCCNC(=O)CC[C@H](NC(=O)CCCCCCCCCCCCCCCCCCC(=O)O)C(=O)O)NC(=O)[C@H](CCC(N)=O)NC(=O)[C@H](C)NC(=O)[C@@H](NC(=O)[C@H](CCCCN)NC(=O)[C@H](CC(=O)O)NC(=O)[C@H](CC(C)C)NC(=O)C(C)(C)NC(=O)[C@@H](NC(=O)[C@H](CO)NC(=O)[C@H](Cc1ccc(O)cc1)NC(=O)[C@H](CC(=O)O)NC(=O)[C@H](CO)NC(=O)[C@@H](NC(=O)[C@H](Cc1ccccc1)NC(=O)[C@@H](NC(=O)CNC(=O)[C@@H](CCC(=O)O)NC(=O)CCNC(=O)C(C)(C)c1cc(F)cc(C#N)c1)[C@@H](C)O)[C@@H](C)O)[C@@H](C)CC)[C@@H](C)CC)C(C)C)C(=O)N[C@@H](C)C(=O)NCC(=O)NCC(=O)N1CCC[C@H]1C(=O)N[C@@H](CO)C(=O)N[C@@H](CO)C(=O)NCC(=O)N[C@@H](C)C(=O)N1CCC[C@H]1C(=O)N1CCC[C@H]1C(=O)N1CCC[C@H]1C(=O)N[C@@H](CO)C(N)=O [Compound 109] ({Isobutyryl(2-(3-CN-5-F-Ph))-βAla}-[dE]GTFTSDYSI[Aib]LDKIAQK([AEEA-AEEA-γGlu-C20 diacid])AFVQWLIAGGPSSGAPPPS-NH2)
EC50 (GIP receptor [1]; [5]): 10 to 100 nM
Emax (GIP receptor [1]; [6]): 96%
EC50 (GIP receptor [2]; [7]): > 1000 nM
EC50 (GLP-1 receptor [3]; [8]): > 1000 nM
EC50 (GLP-1 receptor [4]; [9]): 10 to 100 nM
Emax (GLP-1 receptor [4]; [10]): 82%

CC[C@H](C)[C@H](NC(=O)[C@H](CC(C)C)NC(=O)[C@H](Cc1c[nH]c2ccccc12)NC(=O)[C@H](CCC(N)=O)NC(=O)[C@@H](NC(=O)[C@H](Cc1ccccc1)NC(=O)[C@H](C)NC(=O)[C@H](CCCCNC(=O)COCCOCCNC(=O)COCCOCCNC(=O)CC[C@H](NC(=O)CCCCCCCCCCCCCCCCCCC(=O)O)C(=O)O)NC(=O)[C@H](CCC(N)=O)NC(=O)[C@H](C)NC(=O)[C@@H](NC(=O)[C@H](CCCCN)NC(=O)[C@H](CC(=O)O)NC(=O)[C@H](CC(C)C)NC(=O)C(C)(C)NC(=O)[C@@H](NC(=O)[C@H](CO)NC(=O)[C@H](Cc1ccc(O)cc1)NC(=O)[C@H](CC(=O)O)NC(=O)[C@H](CO)NC(=O)[C@@H](NC(=O)[C@H](Cc1ccccc1)NC(=O)[C@@H](NC(=O)CNC(=O)[C@H](CCC(=O)O)NC(=O)CCNC(=O)C(C)(C)c1cccc(C#N)c1)[C@@H](C)O)[C@@H](C)O)[C@@H](C)CC)[C@@H](C)CC)C(C)C)C(=O)N[C@@H](C)C(=O)NCC(=O)NCC(=O)N1CCC[C@H]1C(=O)N[C@@H](CO)C(=O)N[C@@H](CO)C(=O)NCC(=O)N[C@@H](C)C(=O)N1CCC[C@H]1C(=O)N1CCC[C@H]1C(=O)N1CCC[C@H]1C(=O)N[C@@H](CO)C(N)=O [Compound 150] ({X7-βAla}-EGTFTSDYSI[Aib]LDKIAQK([AEEA-AEEA-γGlu-C20 diacid])AFVQWLIAGGPSSGAPPPS-NH2)
EC50 (GIP receptor [1]): 0.1 to 1 nM
Emax (GIP receptor [1]; [6]): 91%
EC50 (GIP receptor [2]): < 1000 nM
EC50 (GLP-1 receptor [3]): > 1000 nM
EC50 (GLP-1 receptor [4]): 0.1 to 1 nM
Emax (GLP-1 receptor [4]; [10]): 103%

CC[C@H](C)[C@H](NC(=O)[C@H](CO)NC(=O)[C@H](Cc1ccc(O)cc1)NC(=O)[C@H](CC(=O)O)NC(=O)[C@H](CO)NC(=O)[C@@H](NC(=O)[C@H](Cc1ccccc1)NC(=O)[C@@H](NC(=O)CNC(=O)[C@H](CCC(=O)O)NC(=O)CCNC(=O)[C@@]1(c2ccccc2)CNC(=O)C1)[C@@H](C)O)[C@@H](C)O)C(=O)N[C@@H](Cc1ccc(O)cc1)C(=O)N[C@@H](CC(C)C)C(=O)N[C@@H](CC(=O)O)C(=O)N[C@@H](CCCCN)C(=O)N[C@@H](CCC(N)=O)C(=O)N[C@@H](C)C(=O)N[C@@H](C)C(=O)NC(C)(C)C(=O)N[C@@H](CCC(=O)O)C(=O)N[C@@H](Cc1ccccc1)C(=O)N[C@H](C(=O)N[C@@H](CC(N)=O)C(=O)N[C@@H](Cc1c[nH]c2ccccc12)C(=O)N[C@@H](CC(C)C)C(=O)N[C@@H](CC(C)C)C(=O)N[C@@H](C)C(=O)NCC(=O)NCC(=O)N1CCC[C@H]1C(=O)N[C@@H](CO)C(=O)N[C@@H](CO)C(=O)NCC(=O)N[C@@H](C)C(=O)N1CCC[C@H]1C(=O)N1CCC[C@H]1C(=O)N1CCC[C@H]1C(=O)N[C@@H](CO)C(=O)N[C@@H](CCCCNC(=O)COCCOCCNC(=O)COCCOCCNC(=O)CC[C@H](NC(=O)CCCCCCCCCCCCCCCCCCC(=O)O)C(=O)O)C(N)=O)C(C)C (single isomer, unassigned) [Compound 125]
EC50 (GIP receptor [1]; [5]): 10 to 100 nM
Emax (GIP receptor [1]; [6]): 105%
EC50 (GIP receptor [2]; [7]): > 1000 nM
EC50 (GLP-1 receptor [3]; [8]): > 1000 nM
EC50 (GLP-1 receptor [4]; [9]): 10 to 100 nM
Emax (GLP-1 receptor [4]; [10]): 101%

CC[C@H](C)[C@H](NC(=O)[C@H](CC(C)C)NC(=O)[C@H](Cc1c[nH]c2ccccc12)NC(=O)[C@H](CCC(N)=O)NC(=O)[C@@H](NC(=O)[C@H](Cc1ccccc1)NC(=O)[C@H](C)NC(=O)[C@H](CCCCNC(=O)COCCOCCNC(=O)COCCOCCNC(=O)CC[C@H](NC(=O)CCCCCCCCCCCCCCCCCCC(=O)O)C(=O)O)NC(=O)[C@H](CCC(N)=O)NC(=O)[C@H](C)NC(=O)[C@@H](NC(=O)[C@H](CCCCN)NC(=O)[C@H](CC(=O)O)NC(=O)[C@H](CC(C)C)NC(=O)C(C)(C)NC(=O)[C@@H](NC(=O)[C@H](CO)NC(=O)[C@H](Cc1ccc(O)cc1)NC(=O)[C@H](CC(=O)O)NC(=O)[C@H](CO)NC(=O)[C@@H](NC(=O)[C@H](Cc1ccccc1)NC(=O)[C@@H](NC(=O)CNC(=O)[C@H](CCC(=O)O)NC(=O)CCNC(=O)C(CC)(CC)c1cc(F)cc(C#N)c1)[C@@H](C)O)[C@@H](C)O)[C@@H](C)CC)[C@@H](C)CC)C(C)C)C(=O)N[C@@H](C)C(=O)NCC(=O)NCC(=O)N1CCC[C@H]1C(=O)N[C@@H](CO)C(=O)N[C@@H](CO)C(=O)NCC(=O)N[C@@H](C)C(=O)N1CCC[C@H]1C(=O)N1CCC[C@H]1C(=O)N1CCC[C@H]1C(=O)N[C@@H](CO)C(N)=O [Compound 162] ({X81-βAla}-EGTFTSDYSI[Aib]LDKIAQK([AEEA-AEEA-γGlu-C20 diacid])AFVQWLIAGGPSSGAPPPS-NH2)
EC50 (GIP receptor [1]; [5]): 1 to 10 nM
Emax (GIP receptor [1]; [6]): 113%
EC50 (GIP receptor [2]; [7]): < 1000 nM
EC50 (GLP-1 receptor [3]; [8]): > 1000 nM
EC50 (GLP-1 receptor [4]; [9]): 1 to 10 nM
Emax (GLP-1 receptor [4]; [10]): 127%

CC[C@H](C)[C@H](NC(=O)[C@H](CC(C)C)NC(=O)[C@H](Cc1c[nH]c2ccccc12)NC(=O)[C@H](CCC(N)=O)NC(=O)[C@@H](NC(=O)[C@H](Cc1ccccc1)NC(=O)[C@H](C)NC(=O)[C@H](CCCCNC(=O)COCCOCCNC(=O)COCCOCCNC(=O)CC[C@H](NC(=O)CCCCCCCCCCCCCCCCCCC(=O)O)C(=O)O)NC(=O)[C@H](CCC(N)=O)NC(=O)[C@H](C)NC(=O)[C@@H](NC(=O)[C@H](CCCCN)NC(=O)[C@H](CC(=O)O)NC(=O)[C@H](CC(C)C)NC(=O)C(C)(C)NC(=O)[C@@H](NC(=O)[C@H](CO)NC(=O)[C@H](Cc1ccc(O)cc1)NC(=O)[C@H](CC(=O)O)NC(=O)[C@H](CO)NC(=O)[C@@H](NC(=O)[C@H](Cc1ccccc1)NC(=O)[C@@H](NC(=O)CNC(=O)[C@H](CCC(=O)O)NC(=O)CCCNC(=O)CNC(=O)Nc1ccc(Cl)c(C(F)(F)F)c1)[C@@H](C)O)[C@@H](C)O)[C@@H](C)CC)[C@@H](C)CC)C(C)C)C(=O)N[C@@H](C)C(=O)NCC(=O)NCC(=O)N1CCC[C@H]1C(=O)N[C@@H](CO)C(=O)N[C@@H](CO)C(=O)NCC(=O)N[C@@H](C)C(=O)N1CCC[C@H]1C(=O)N1CCC[C@H]1C(=O)N1CCC[C@H]1C(=O)N[C@@H](CO)C(N)=O [Compound 265] ({NH(4-Cl-3-CF3-phenyl)-CO}-G[GABA]EGTFTSDYSI[Aib]LDKIAQK([AEEA-AEEA-γGlu-C20 diacid])AFVQWLIAGGPSSGAPPPS-NH2)
EC50 (GIP receptor [1]): 1 to 10 nM
Emax (GIP receptor [1]; CHO): 107%
EC50 (GIP receptor [2]): < 1000 nM
EC50 (GLP-1 receptor [3]): > 1000 nM
EC50 (GLP-1 receptor [4]): 10 to 100 nM
Emax (GLP-1 receptor [4]; CHO): 94%
